In US20200071310A1, “N-ARYL PYRAZOLES AS NRF2 REGULATORS” (GLAXOSMITHKLINE INTELLECTUAL PROPERTY DEVELOPMENT LIMITED, priority 2016, published 2020):
pEC50: −log10 of the molar value.

Key:
[1] = test system: NQO1 specific enzyme activity in BEAS-2B cells; experiment: BEAS-2B NQO1 MTT Assay; type: cell-based; conditions: Homo sapiens; NQO1 specific activity induction, BEAS-2B cells, 48 hours; read-out: EC50
How it was run: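 BEAS-2B cells plated overnight, treated with compound for 48 h at 37° C, then lysed; NQO1 activity measured kinetically by MTT cocktail at 570 nm over 30 min, with lysate aliquot for Cell Titer Glo. pEC50 from 3-parameter fit of ΔOD/min versus log concentration.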

[2] = target: T1, full length Keap1 protein / full length NRF2 protein (Homo sapiens, UniProt Q14145); experiment: NRF2-Keap1 TR-FRET Low Protein Assay; type: binding
T1 construct: full length NRF2 protein and full length Keap1 protein (Keap1 exists a dimer) are used; His
How it was run: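 Compounds were preincubated with Keap1 FlagHis (1.25 nM) for 2.25 h at 37° C, then biotin-NRF2 (2.5 nM) was added for 1.25 h at 4° C in pH 8.0 Tris buffer with DTT/CHAPS. After 1 h with Eu-streptavidin/anti-Flag APC, the 665/615 nm ratio was normalized to controls and pIC50 fitted by four-parameter equation.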

T1 sequence (Q14145 whole entry): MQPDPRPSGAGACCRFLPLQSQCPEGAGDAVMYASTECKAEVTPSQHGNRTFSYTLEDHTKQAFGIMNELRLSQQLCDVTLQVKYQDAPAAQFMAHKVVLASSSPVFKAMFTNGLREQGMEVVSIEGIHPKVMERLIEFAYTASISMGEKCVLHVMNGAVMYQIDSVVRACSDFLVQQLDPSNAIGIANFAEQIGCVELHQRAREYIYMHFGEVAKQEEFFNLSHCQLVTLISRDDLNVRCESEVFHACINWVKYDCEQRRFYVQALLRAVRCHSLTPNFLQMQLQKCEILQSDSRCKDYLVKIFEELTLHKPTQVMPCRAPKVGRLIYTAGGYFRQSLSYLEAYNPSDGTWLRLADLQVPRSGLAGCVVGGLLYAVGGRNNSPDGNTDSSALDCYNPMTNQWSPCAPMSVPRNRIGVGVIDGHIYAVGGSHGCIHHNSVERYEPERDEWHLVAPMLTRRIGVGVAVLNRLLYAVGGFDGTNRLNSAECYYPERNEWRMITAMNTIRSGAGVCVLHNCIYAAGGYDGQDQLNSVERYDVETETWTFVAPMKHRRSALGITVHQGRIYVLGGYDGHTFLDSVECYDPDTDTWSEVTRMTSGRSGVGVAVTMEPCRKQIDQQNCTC

SMILES	pEC50 [1]	pEC50 [2]
C[C@H]1Cc2ccccc2S(=O)(=O)N(Cc2cccc(-n3ncc(C(=O)O)c3[C@@H]3C[C@H]3c3cnn(C)c3)c2)C1 [Example 32, 1-(3-(((S)-4-methyl-1,1-dioxido-4,5-dihydrobenzo[f][1,2]thiazepin-2(3H)-yl)methyl)-phenyl)-5-(trans-2-(1-methyl-1H-pyrazol-4-yl)cyclopropyl)-1H-pyrazole-4-carboxylic acid]	5.00 to 6.00	5.00 to 6.00
CC[C@@H]1CN(Cc2cccc(-n3ncc(C(=O)O)c3[C@@H]3C[C@H]3c3cn(C)nn3)c2)S(=O)(=O)c2ccccc2O1 [Example 3]	6.00 to 7.00	7.00 to 8.00
COc1ccc(Br)cc1S(=O)(=O)N(C)Cc1cccc(-n2ncc(C(=O)O)c2[C@@H]2C[C@H]2c2cn(C)nn2)c1 (racemic) [Example 43, 1-(3-((5-bromo-2-methoxy-N-methylphenylsulfonamido)methyl)phenyl)-5-((trans)-2-(1-methyl-1H-1,2,3-triazol-4-yl)cyclopropyl)-1H-pyrazole-4-carboxylic acid]	5.00 to 6.00	5.00 to 6.00
CC[C@@H]1CN(Cc2cc(-n3ncc(C(=O)O)c3[C@@H]3C[C@H]3c3cn(C)nn3)ccc2C)Cc2ccccc2O1 [Example 28]	6.00 to 7.00	5.00 to 6.00
Cc1cc([C@@H]2C[C@H]2c2c(C(=O)O)cnn2-c2cccc(CN3C[C@@H](C)Cc4cc(C(F)(F)F)ccc4S3(=O)=O)c2)on1 (racemic) [Example 57, 1-(3-(((S)-4-Methyl-1,1-dioxido-7-(trifluoromethyl)-4,5-dihydrobenzo[f][1,2]thiazepin-2(3H)-yl)methyl)phenyl)-5-(trans-2-(3-methylisoxazol-5-yl)cyclopropyl)-1H-pyrazole-4-carboxylic acid]	6.00 to 7.00	5.00 to 6.00
CC(c1cccc(-n2ncc(C(=O)O)c2[C@@H]2C[C@H]2c2cn(C)nn2)c1)N1C[C@@H](C)Cc2ccc(C(F)(F)F)cc2S1(=O)=O (single isomer, unassigned) [Example 6, 1-(3-((R or S)-1-((S)-4-Methyl-1,1-dioxido-8-(trifluoromethyl)-4,5-dihydrobenzo[f][1,2]thiazepin-2(3H)-yl)ethyl)phenyl)-5-((1R,2R)-2-(1-methyl-1H-1,2,3-triazol-4-yl)cyclopropyl)-1H-pyrazole-4-carboxylic acid]	6.00 to 7.00	7.00 to 8.00
C[C@@H]1Cc2cc(C(F)(F)F)ccc2S(=O)(=O)N(Cc2cccc(-n3ncc(C(=O)O)c3[C@@H]3C[C@H]3c3cnn(C)c3)c2)C1 [Example 33, 1-(3-(((R)-4-methyl-1,1-dioxido-7-(trifluoromethyl)-4,5-dihydro-benzo[f][1,2]thiazepin-2(3H)-yl)methyl)phenyl)-5-(trans-2-(1-methyl-1H-pyrazol-4-yl)cyclopropyl)-1H-pyrazole-4-carboxylic acid]	5.00 to 6.00	4.00 to 5.00
CN(Cc1cccc(-n2ncc(C(=O)O)c2[C@@H]2C[C@H]2c2cn(C)nn2)c1)S(=O)(=O)c1ccc(-c2ccccc2)cc1 (relative stereo) [Example 39, 5-((trans)-2-(1-methyl-1H-1,2,3-triazol-4-yl)cyclo-propyl)-1-(3-((N-methyl-[1,1′-biphenyl]-4-ylsulfonamido)-methyl)phenyl)-1H-pyrazole-4-carboxylic acid]	5.00 to 6.00	6.00 to 7.00
CCCN(Cc1cccc(-n2ncc(C(=O)O)c2[C@@H]2C[C@H]2c2cn(C)nn2)c1)S(=O)(=O)c1ccccc1C (racemic) [Example 50, 5-((trans)-2-(1-methyl-1H-1,2,3-triazol-4-yl)cyclopropyl)-1-(3-((2-methyl-N-propylphenylsulfonamido)methyl)phenyl)-1H-pyrazole-4-carboxylic acid]	7.00 to 8.00	5.00 to 6.00
CCCCCCN(Cc1cccc(-n2ncc(C(=O)O)c2[C@@H]2C[C@H]2c2cn(C)nn2)c1)S(=O)(=O)c1ccc(Oc2ccccc2)cc1 (relative stereo) [Example 36, 1-(3-((N-hexyl-4-phenoxyphenylsulfonamido)methyl)phenyl)-5-((trans)-2-(1-methyl-1H-1,2,3-triazol-4-yl)-cyclopropyl)-1H-pyrazole-4-carboxylic acid]	6.00 to 7.00	6.00 to 7.00
COc1ccccc1S(=O)(=O)NCc1cccc(-n2ncc(C(=O)O)c2[C@@H]2C[C@H]2c2cn(C)nn2)c1 (racemic) [Example 52, 1-(3-((2-methoxyphenylsulfonamido)methyl)phenyl)-5-((trans)-2-(1-methyl-1H-1,2,3-triazol-4-yl)cyclopropyl)-1H-pyrazole-4-carboxylic acid]	6.00 to 7.00	5.00 to 6.00
C[C@H]1Cc2ccccc2S(=O)(=O)N(Cc2cccc(-n3ncc(C(=O)O)c3[C@@H]3C[C@H]3c3cn(C)nn3)c2)C1 [Example 15, 1-(3-(((S)-4-methyl-1,1-dioxido-4,5-dihydrobenzo[f][1,2]thiazepin-2(3H)-yl)methyl)phenyl)-5-((trans)-2-(1-methyl-1H-1,2,3-triazol-4-yl)cyclopropyl)-1H-pyrazole-4-carboxylic acid]	5.00 to 6.00	6.00 to 7.00
C[C@H]1Cc2cc(C(F)(F)F)ccc2S(=O)(=O)N(Cc2cccc(-n3ncc(C(=O)O)c3[C@@H]3C[C@H]3c3cnn(C)c3)c2)C1 [Example 30, 1-(3-(((S)-4-Methyl-1,1-dioxido-7-(trifluoromethyl)-4,5-dihydrobenzo[f][1,2]thiazepin-2(3H)-yl)methyl)phenyl)-5-(trans-2-(1-methyl-1H-pyrazol-4-yl)cyclopropyl)-1H-pyrazole-4-carboxylic acid]	5.00 to 6.00	6.00 to 7.00
CC[C@H]1Cc2ccc(Br)cc2S(=O)(=O)N(Cc2cccc(-n3ncc(C(=O)O)c3[C@@H]3C[C@H]3c3cn(C)nn3)c2)C1 [Example 22, 1-(3-(((S)-8-bromo-4-ethyl-1,1-dioxido-4,5-dihydrobenzo[f][1,2]thiazepin-2(3H)-yl)methyl)phenyl)-5-((1R,2R)-2-(1-methyl-1H-1,2,3-triazol-4-yl)cyclopropyl)-1H-pyrazole-4-carboxylic acid]	8.00 to 9.00	> 8.00
